Experimental data published in PubChem BioAssay AID624278 (The Scripps Research Institute Molecular Screening Center, 2012).
Active and inactive are the calls of the source.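 How the source made its calls: active means target gene mRNA expression lowered over 20% below the solvent-only control in each of three panels; inactive means the rest.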

Legend:
Test in all cases: RORC target gene expression suppression, late-stage follow-up, mechanism study for RORC inverse agonist project, cell-based, qPCR, endogenous IL-17 and IL-23R, fluorescence (AID 624278)
[1] = system: IL-17; settings: EL-4 murine T cells, IL-17/IL-23R qPCR, PMA/ionomycin, at 5 µM, stronger effect = lower value
[2] = system: IL-23R; settings: EL-4 murine T cells, IL-17/IL-23R qPCR, PMA/ionomycin, at 5 µM, stronger effect = lower value
[3] = target: Interleukin-17A (Mus musculus) (UniProt Q62386); settings: EL-4 murine T cells, IL-17/IL-23R qPCR, PMA/ionomycin; IL-17; Protein
Interleukin-17A (Mus musculus), sequence (Q62386 whole entry, looked up): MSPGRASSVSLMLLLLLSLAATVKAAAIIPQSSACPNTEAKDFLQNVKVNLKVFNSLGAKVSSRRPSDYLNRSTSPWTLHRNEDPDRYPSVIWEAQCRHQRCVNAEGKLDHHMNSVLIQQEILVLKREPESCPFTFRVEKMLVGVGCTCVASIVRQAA

## OC(c1ccc(-c2ccc(CN3CCN(Cc4ccncc4)CC3)cc2)c(F)c1)(C(F)(F)F)C(F)(F)F
[1]; IL-17 protein level
  relative protein level: 0.6
[1]; mRNA
  relative gene expression: 0.1
[2]
  relative gene expression: 0.2
[3]
  outcome: active
